In brackets after ≈: the same amount, converted by molar mass. Like-named read-outs stand apart in the source and are kept apart here.
Legend:
[1] = system: E. coli W3110; experiment: MIC by broth microdilution; format: cell-based, Escherichia coli; settings: for antimicrobial activity: relative to parent compound
Description: (§1) MIC was determined by broth microdilution. Single-colony cultures were grown to exponential phase (OD600 of 0.5) aerobically at 37 °C. In case of strains from the Keio collection, 50 µg ml^−1 kanamycin was supplemented to the media to ascertain a homogeneous population. The bacterial suspensions were diluted 100-fold in CAMHB and 50 µl was added to a twofold serial dilution series of test compounds (50 µl per well) in polypropylene 96-well microtitre plates to reach a volume of 100 µl. The plates were sealed with breathable membranes and incubated overnight at 37 °C with constant shaking (600 r.p.m.).

[2] = system: K. pneumoniae ATCC 29665; experiment: MIC by broth microdilution; format: cell-based, Klebsiella pneumoniae; settings: read-out: MIC K. pneumoniae ATCC 29665
Description: as §1

[3] = system: E. coli BW25113; experiment: Bacterial cytological profiling (BCP); format: cell-based, Escherichia coli; settings: BCP; for DIC angularity: 2 h, AMP 12.5, RIF 12.5, TET 6.25, CIP 0.0625, LEI-801 6.25, LEI-800 6.25 µM, average ± SD of 3 replicates; for DAPI intensity / SYTOX Green intensity: standardized to DMSO control
Description: Overnight E. coli BW25113 cultures were diluted 1:100 in fresh LB medium in a 100 ml Erlenmeyer flask and incubated at 120 r.p.m. and 37 °C. When OD600 >0.2, the cultures were diluted to OD600 of 0.1 in fresh LB medium with a final volume of 200 µl in a 2 ml Eppendorf tube. The appropriate antibiotic or control treatment was applied and the samples were incubated at 200 r.p.m. and 30 °C for 2 h. Subsequently, 4,6-diamidino-2-phenylindole (DAPI) (2 µg ml^−1), FM4-64 (2 µg ml^−1) and SYTOX Green (0.5 µM) were added to reach the desired concentration and the samples were incubated a further 10 min. The samples were then centrifuged at 3,300g for 50 s and the pellets resuspended in half the original volume. From this suspension, 5 µl was spotted onto a 2.0% agarose pad for microscopy.
Microscopy was performed on a Zeiss Axio Observer Z1/7 inverted microscope.
For the qualitative assessment of the bacterial morphology, the acquired images were first pre-processed in ImageJ (v1.53m)[47]. Thereafter the brightness and contrast were adjusted to allow the clearest visual inspection of the particular phenotype. For the quantitative BCP, DIC images were first pre-processed and then a random forest classifier was trained with Illastik (v1.3.3)[48] to generate a segmented image. These binary masks were then combined together with the original DIC image and processed with the ImageJ plugin MicrobeJ (v 5.13l)[49]. MicrobeJ generated cell outlines and performed measurements on cell shape accordingly. The recorded cell outlines produced by MicrobeJ were exported and used as a guide to characterize the DNA shape within each bacterium using a custom-made ImageJ macro (Appendix II). DAPI and SYTOX Green intensity were measured on raw images in a similar manner. Then, by hand, polygons were drawn that excluded bacteria to determine background intensity. After background correction the intensity was standardized to the DMSO control within the same biological replicate. For PCA, the BCP assay was executed for three independently biological replicates. During each experiment, images were acquired until 24 or more bacteria in total had been observed. Following feature extraction for each replicate, principal component analysis was performed using GraphPad Prism (v9.0.0) using multiple variable analysis with standardized data. Principal components (PCs) were selected based on the per cent of total explained variance (minimum 80%).

[4] = Escherichia coli, W3110, follow-up of the 12 library hits, read-out: MIC E. coli
[5] = Klebsiella pneumoniae, ATCC29665, broth microdilution
[6] = Escherichia coli, W3110, WT, broth microdilution, read-out: MIC E. coli W3110
[7] = WT, broth microdilution, read-out: MIC E. coli W3110

O=S(=O)(NCCNC/C=C/c1ccc(-c2cccnc2)cc1)c1ccc2[nH]ncc2c1 [SG170]
MIC [1, 4]: > 50 µM

O=S(=O)(NCCNCc1ccc(-c2ccc(C(F)(F)F)cc2)cc1)c1cccc2cnccc12 [Compound 64]
MIC [2, 5]: > 50 µM | MIC ([2]; broth microdilution): >50 µM | MIC [1, 6]: > 50 µM | MIC [1, 7]: >50 µM

O=S(=O)(NCCNCc1ccc(-c2ccccc2Cl)cc1)c1cccc2cnccc12 [Compound 70]
MIC [2, 5]: 50 µM (≈ 22.6 µg/mL) | MIC [1, 6]: 25 µM (≈ 11.3 µg/mL)

O=S(=O)(NCCNCc1ccc(-c2cccnc2)cc1)c1cccc2[nH]ncc12 [Compound 49]
MIC [2, 5]: > 50 µM | MIC ([2]; broth microdilution): >50 µM | MIC [1, 6]: > 50 µM | MIC [1, 7]: >50 µM

O=S(=O)(NCCNCc1ccc(-c2cccnc2)cc1)c1cccc2ccccc12 [Compound 47]
MIC [2, 5]: > 50 µM | MIC ([2]; broth microdilution): 50 µM (≈ 20.9 µg/mL) | MIC [1, 6]: 25 µM (≈ 10.4 µg/mL) | antimicrobial activity [1]: fourfold reduced activity

O=S(=O)(NCCNCc1ccc(-c2ccc(Cl)c(Cl)c2)cc1)c1cccc2cnccc12 [Compound 74]
MIC [2, 5]: > 50 µM | MIC ([2]; broth microdilution): >50 µM | MIC [1, 6]: 25 µM (≈ 12.2 µg/mL)

O=S(=O)(NCCNCCc1ccc(-c2cccnc2)cc1)c1cccc2cnccc12 [BB077]
MIC [1, 4]: > 50 µM

O=S(=O)(NCCNCc1ccc(-c2ccc3ccccc3c2)cc1)c1cccc2cnccc12 [Compound 76]
MIC [2, 5]: > 50 µM | MIC ([2]; broth microdilution): >50 µM | MIC [1, 6]: > 50 µM | MIC [1, 7]: >50 µM

O=S(=O)(NCCNCc1ccc(-c2ccc(F)cc2)c(F)c1)c1cccc2cnccc12 [Compound 90]
MIC [2, 5]: 12.5 µM (≈ 5.67 µg/mL) | MIC [1, 6]: 12.5 µM (≈ 5.67 µg/mL)

O=S(=O)(NCCNCc1ccc(-c2cccnc2)cc1)c1ccccc1 [Compound 48]
MIC [2, 5]: > 50 µM | MIC ([2]; broth microdilution): >50 µM | MIC [1, 6]: > 50 µM | MIC [1, 7]: >50 µM | antimicrobial activity [1]: lost all activity

Cc1ccccc1-c1ccc(CNCCNS(=O)(=O)c2cccc3cnccc23)cc1 [Compound 71]
MIC [2, 5]: 50 µM (≈ 21.6 µg/mL) | MIC [1, 6]: 12.5 µM (≈ 5.39 µg/mL)

COc1ccccc1-c1ccc(CNCCNS(=O)(=O)c2cccc3cnccc23)cc1 [Compound 73]
MIC [2, 5]: 50 µM (≈ 22.4 µg/mL) | MIC [1, 6]: 25 µM (≈ 11.2 µg/mL)

O=S(=O)(NCCNCc1ccc(-c2cccnc2)c(F)c1)c1cccc2cnccc12 [Compound 87]
MIC [2, 5]: 50 µM (≈ 21.8 µg/mL) | MIC [1, 6]: 25 µM (≈ 10.9 µg/mL)

O=S(=O)(NCCNC/C=C/c1ccc(-c2cccnc2)cc1)c1cccc2[nH]ncc12 [SG176]
MIC [1, 4]: > 50 µM

N#Cc1cccc(-c2ccc(CNCCNS(=O)(=O)c3cccc4cnccc34)cc2)c1 [Compound 68]
MIC [2, 5]: 25 µM (≈ 11.1 µg/mL) | MIC [1, 6]: 12.5 µM (≈ 5.53 µg/mL)

O=S(=O)(NCCNCc1ccc(-c2cccnc2)cc1)c1ccnc2[nH]ccc12 [Compound 54]
MIC [2, 5]: > 50 µM | MIC ([2]; broth microdilution): >50 µM | MIC [1, 6]: > 50 µM | MIC [1, 7]: >50 µM

O=C(NCCNS(=O)(=O)c1cccc2cnccc12)c1ccc(-c2cccnc2)cc1 [Compound 93]
MIC [2, 5]: > 50 µM | MIC ([2]; broth microdilution): >50 µM | MIC [1, 6]: > 50 µM | MIC [1, 7]: >50 µM | antimicrobial activity [1]: abolished all activity

Cc1cccc(-c2ccc(CNCCNS(=O)(=O)c3cccc4cnccc34)cc2)c1 [Compound 67]
MIC [2, 5]: > 50 µM | MIC ([2]; broth microdilution): >50 µM | MIC [1, 6]: > 50 µM | MIC [1, 7]: >50 µM

O=S(=O)(NCCNCc1ccc(-c2cccc(F)c2)cc1)c1cccc2cnccc12 [Compound 66]
MIC [2, 5]: 25 µM (≈ 10.9 µg/mL) | MIC [1, 6]: 12.5 µM (≈ 5.44 µg/mL)

Nc1ccc2c(N3CCC(COc4ccccn4)CC3)ncnc2n1 [AJ358]
MIC [1, 4]: > 50 µM

O=S(=O)(NCCNCc1ccc(-c2ccccc2)c(Cl)c1)c1cccc2cnccc12 [Compound 84]
MIC [2, 5]: > 50 µM | MIC ([2]; broth microdilution): >50 µM | MIC [1, 6]: > 50 µM | MIC [1, 7]: >50 µM

O=S(=O)(NCCNCc1ccc(-c2ccc(F)nc2)c(Cl)c1)c1cccc2cnccc12 [Compound 85]
MIC [2, 5]: > 50 µM | MIC ([2]; broth microdilution): >50 µM | MIC [1, 6]: > 50 µM | MIC [1, 7]: >50 µM

O=S(=O)(NCCNCc1ccc(-c2ccccc2)nc1)c1cccc2cnccc12 [Compound 80]
MIC [2, 5]: > 50 µM | MIC ([2]; broth microdilution): >50 µM | MIC [1, 6]: > 50 µM | MIC [1, 7]: >50 µM

CN(CCNS(=O)(=O)c1cccc2cnccc12)Cc1ccc(-c2cccnc2)cc1 [Compound 95]
MIC [2, 5]: 50 µM (≈ 21.6 µg/mL) | MIC [1, 6]: > 50 µM | MIC [1, 7]: >50 µM | antimicrobial activity [1]: abolished all activity

Nc1ccccc1S(=O)(=O)NCCNC/C=C/c1ccc(-c2cccnc2)cc1 [BB064]
MIC [1, 4]: > 50 µM

O=S(=O)(NCCNCc1ccc(-c2cccc(C(F)(F)F)c2)cc1)c1cccc2cnccc12 [Compound 69]
MIC [2, 5]: > 50 µM | MIC ([2]; broth microdilution): >50 µM | MIC [1, 6]: 25 µM (≈ 12.1 µg/mL)

O=S(=O)(NCCOCc1ccc(-c2cccnc2)cc1)c1cccc2cnccc12 [Compound 94]
MIC [2, 5]: > 50 µM | MIC ([2]; broth microdilution): >50 µM | MIC [1, 6]: > 50 µM | MIC [1, 7]: >50 µM | antimicrobial activity [1]: abolished all activity

Cc1ccc(S(=O)(=O)N[C@@H]2C(=O)c3cc(C)ccc3O[C@H]2C)cc1 [IMI1517570]
MIC [1, 4]: 25 µM (≈ 8.64 µg/mL)

CN(C)CCCN1c2ccccc2Sc2ccc(Cl)cc21 [MB053]
MIC ([1]; Escherichia coli, W3110, read-out: MIC E. coli): > 50 µM

Nc1cc2c(S(=O)(=O)NCCNC/C=C/c3ccc(-c4cccnc4)cc3)cccc2cn1 [SG181]
MIC [1, 4]: > 50 µM

O=S(=O)(NCCNC/C=C/c1ccccc1-c1ccc2c(c1)OCO2)c1cccc2cnccc12 [Compound 97i]
MIC [1, 4]: > 50 µM

O=S(=O)(NCCNCCCc1ccc(-c2cccnc2)cc1)c1cccc2cnccc12 [SG145]
MIC [1, 4]: > 50 µM

CC1(C)S[C@@H]2[C@H](NC(=O)[C@H](N)c3ccccc3)C(=O)N2[C@H]1C(=O)O [AMP, ampicillin, reference compound]
DAPI circularity [3]: 0.173 ± 0.043 | DAPI nucleoid area [3]: 9.445 ± 2.853 | DAPI nucleoids [3]: 2.583 ± 0.910 | DAPI perimeter [3]: 30.886 ± 6.792 | DAPI roundness [3]: 0.108 ± 0.020 | DAPI solidity [3]: 0.603 ± 0.036 | DAPI total area [3]: 19.710 ± 4.300 | DIC area [3]: 31.597 ± 3.284 | DIC circularity [3]: 0.144 ± 0.015 | DIC curvature [3]: 0.024 ± 0.004 | DIC feret [3]: 26.883 ± 3.012 | DIC length [3]: 27.774 ± 3.16 | DIC perimeter [3]: 56.849 ± 6.297 | DIC roundness [3]: 0.066 ± 0.008 | DIC sinuosity [3]: 1.033 ± 0.002 | DIC solidity [3]: 0.538 ± 0.044 | DIC width [3]: 1.143 ± 0.051 | Decondensation [3]: 0.619 ± 0.078 | DIC angularity [3]: 0.069 ± 0.009 | DAPI intensity [3]: 1.490 ± 0.410 | SYTOX Green intensity [3]: 1.901 ± 0.246

CO[C@H]1/C=C/O[C@@]2(C)Oc3c(C)c(O)c4c(O)c(c(/C=N/N5CCN(C)CC5)c(O)c4c3C2=O)NC(=O)/C(C)=C\C=C\[C@H](C)[C@H](O)[C@@H](C)[C@@H](O)[C@@H](C)[C@H](OC(C)=O)[C@@H]1C [RIF, rifampicin, reference compound]
DAPI circularity [3]: 0.637 ± 0.019 | DAPI nucleoid area [3]: 4.992 ± 0.606 | DAPI nucleoids [3]: 1.120 ± 0.069 | DAPI perimeter [3]: 9.927 ± 0.636 | DAPI roundness [3]: 0.408 ± 0.029 | DAPI solidity [3]: 0.918 ± 0.003 | DAPI total area [3]: 5.402 ± 0.548 | DIC area [3]: 5.883 ± 0.716 | DIC circularity [3]: 0.642 ± 0.053 | DIC curvature [3]: 0.092 ± 0.018 | DIC feret [3]: 4.608 ± 0.076 | DIC length [3]: 4.635 ± 0.073 | DIC roundness [3]: 0.370 ± 0.047 | DIC sinuosity [3]: 1.017 ± 0.003 | DIC solidity [3]: 0.956 ± 0.014 | DIC width [3]: 1.327 ± 0.161 | Decondensation [3]: 0.922 ± 0.075 | DIC angularity [3]: 0.101 ± 0.016 | DAPI intensity [3]: 0.704 ± 0.260 | SYTOX Green intensity [3]: 2.120 ± 0.434

O=S(=O)(NCCNC/C=C/c1ccc(-c2cccnc2)cc1)c1ccc2cn[nH]c2c1 [SG171]
MIC [1, 4]: > 50 µM
